Columns and labels:
Type in all cases: in vivo
Spodoptera littoralis = experiment: Study on Spodoptera littoralis (haricot leaf dip test); settings: starting from a dose of 300 ppm, after seven days, 25 C
Experimental: The product was dissolved at the desired concentration in an acetone-water mixture (50-50). Haricot leaves (Phaseolus vulgaris, var. […]) were immersed for five seconds in the solution, then left to dry in a Petri dish for one hour. Ten larvae of Spodoptera littoralis were then added to each dish. These were kept at a temperature of 25 C., with a photoperiod of twelve hours. After seven days, the mortality of the larvae was checked and the foliar surface consumed was evaluated.

Heliothis virescens = experiment: Study on Heliothis virescens (artificial medium surface treatment); settings: starting from a dose of 300 ppm; neonate larva; after seven days; 25 C
Experimental: The product was dissolved at the desired concentration in an acetone-water mixture (50-50). 50 μl of solution were deposited on the surface of a small well containing approximately 2 grams of plant-based artificial medium. One neonate larva of Heliothis virescens was then introduced into each well, which was sealed with a sheet of cellophane. The tests were kept at a temperature of 25 C., with a photoperiod of twelve hours. The mortality of the larvae was checked after seven days.

Phaedon cochleariae = experiment: Study on Phaedon cochleariae (foliar disk dip test, Chinese cabbage); settings: starting from a dose of 300 ppm; adults; after seven days; 25 C
Experimental: The product was dissolved at the desired concentration in an acetone-water mixture (50-50). Foliar disks of Chinese cabbage (Brassica pekinensis) were immersed for five seconds in the solution, then left to dry for one hour. Ten adults (a mixture of males and females) were added into a Petri dish containing a foliar disk each. These were kept at a temperature of 25 C., with a photoperiod of twelve hours. After seven days, the mortality of the insects was checked and the foliar surface consumed was evaluated.

[1] = test system: Leptinotarsa decemlineata; experiment: Study on Leptinotarsa decemlineata (aubergine foliar disk dip test); settings: starting from a dose of 300 ppm; larvae (3rd stage); after four days; 25 C
Experimental: The product was dissolved at the desired concentration in an acetone-water mixture (50-50). Foliar disks of aubergine were immersed in the solution, then left to dry for one hour. Ten larvae (3rd stage) were added into a Petri dish each containing a foliar disk. These were kept at a temperature of 25 C. After four days, the mortality of the insects was checked.

Compound: Cc1ccccc1NC(=O)c1ccc(CC(F)Cc2ccc(Cl)c(Cl)c2)cc1 (stereo not drawn) [Example 1, 4-[3-(3,4-dichlorophenyl)-2-fluoropropyl]-N-(2-methylphenyl)-benzamide]
- activity (mortality of the larvae and foliar surface consumed) (Spodoptera littoralis): good activity
- activity (mortality of the larvae) (Heliothis virescens): good activity

Compound: Cc1ccccc1NC(=O)c1ccc(CC(F)=Cc2ccc(Cl)c(Cl)c2)cc1 [Example 2]
- activity (mortality of the larvae and foliar surface consumed) (Spodoptera littoralis): good activity
- activity (mortality of the larvae) (Heliothis virescens): good activity

Compound: CC(=CCc1ccc(C(=O)Nc2ccccc2C)cc1)c1ccc(Cl)c(Cl)c1 [Example 5, 4-[3-(3,4-dichlorophenyl)-2-butenyl]-N-(2-methylphenyl)-benzamide]
- activity (mortality of the larvae and foliar surface consumed) (Spodoptera littoralis): good activity
- activity (mortality of the larvae) (Heliothis virescens): good activity

Compound: Cc1ccccc1NC(=O)c1ccc(CC=C(Cl)c2ccc(Cl)c(Cl)c2)cc1 [Example 6, 4-[3-chloro-3-(3,4-dichlorophenyl)-2-propenyl]-N-(2-methylphenyl)-benzamide]
- activity (mortality of the insects and foliar surface consumed) (Phaedon cochleariae): good activity
- activity (mortality of the larvae and foliar surface consumed) (Spodoptera littoralis): good activity
- activity (mortality of the larvae) (Heliothis virescens): good activity
- activity (mortality of the insects) [1]: very interesting activity

Compound: Cc1ccccc1NC(=O)c1ccc(CC=Cc2ccc(Cl)c(Cl)c2)cc1 [Example 7, 4-[3-(3,4-dichlorophenyl)-2-propenyl]-N-(2-methylphenyl)-benzamide]
- activity (mortality of the larvae and foliar surface consumed) (Spodoptera littoralis): good activity
- activity (mortality of the larvae) (Heliothis virescens): good activity
